Measurements reported in patent US7166616B2, “Substituted alkanoic acids” (Aventis Pharma Limited, priority 2000, dated 2007).

COc1cc(CC(=O)Nc2ccc(C3(CC(=O)O)CCCC3)cc2)ccc1NC(=O)Nc1ccccc1C [Example 2, [1-{4-[2-[3-Methoxy-4-[3-o-tolyl-ureido]-phenyl]-acetylamino]-phenyl}-cyclopentyl]-acetic acid]
melting point: 223 to 226 °C

Cc1ccccc1Nc1nc2ccc(CC(=O)Nc3ccc(C4(CC(=O)O)CCCC4)cc3)cc2o1 [Example 1, (1-{4-[2-(2-o-Tolylamino-benzoxazol-6-yl)-acetylamino]-phenyl}-cyclopentyl)-acetic acid]
melting point: 123 to 126 °C
